Tests used:
[1] = Efflux ratio of apparent permeability across basolateral to apical side over apical to basolateral side in vinblastine treated human Caco-2 cells at 1 to 10 uM incubated for 15 to 60 hrs by HPLC analysis
Vasopressin V1a receptor [2] = biological target: T1, Vasopressin V1a receptor (Homo sapiens, UniProt P37288)
Description: Antagonist activity at human V1A receptor expressed in human 1321N1 cells assessed as Ca2+ mobilization incubated for 15 mins by FLIPR calcium 5 assay

[3] = human, microsomes, 1 µM
in vitro [4] = details: Wistar, rat, microsomes
in vitro [5] = details: NMRI, mouse, microsomes
animal or person [6] = details: Mus musculus, NMRI, read-out: INH
[7] = Apparent permeability of compound across apical to basal side in vinblastine treated human Caco-2 cells at 1 to 10 uM incubated for 15 to 60 mins by HPLC analysis
[8] = biological target: Voltage-gated inwardly rectifying potassium channel KCNH2 (Homo sapiens, UniProt Q12809)
Description: Inhibition of hERG expressed in CHO cells at -80 mV holding potential incubated for 7 to 10 mins by automated patch clamp method

in vitro [9] = details: CD-1, mouse, liver microsomes
in vitro [10] = details: human, microsomes
Vasopressin V1a receptor [11] = biological target: T1, Vasopressin V1a receptor; remark: listed apart in the source
Description: Displacement of [3H]vasopressin from human V1A receptor assessed as inhibition constant by Cheng-Prusoff equation analysis

animal or person [12] = details: Mus musculus, NMRI, po, read-out: INH
animal or person [13] = details: Mus musculus, NMRI, po, read-out: INH; remark: listed apart in the source
animal or person [14] = details: Rattus norvegicus, po, read-out: INH
Cytochrome P450 1A2 = biological target: T2, Cytochrome P450 1A2 (Homo sapiens, UniProt P05177); assay: Inhibition of CYP1A2 (unknown origin); assay type: ADME
T2 sequence (P05177 whole entry): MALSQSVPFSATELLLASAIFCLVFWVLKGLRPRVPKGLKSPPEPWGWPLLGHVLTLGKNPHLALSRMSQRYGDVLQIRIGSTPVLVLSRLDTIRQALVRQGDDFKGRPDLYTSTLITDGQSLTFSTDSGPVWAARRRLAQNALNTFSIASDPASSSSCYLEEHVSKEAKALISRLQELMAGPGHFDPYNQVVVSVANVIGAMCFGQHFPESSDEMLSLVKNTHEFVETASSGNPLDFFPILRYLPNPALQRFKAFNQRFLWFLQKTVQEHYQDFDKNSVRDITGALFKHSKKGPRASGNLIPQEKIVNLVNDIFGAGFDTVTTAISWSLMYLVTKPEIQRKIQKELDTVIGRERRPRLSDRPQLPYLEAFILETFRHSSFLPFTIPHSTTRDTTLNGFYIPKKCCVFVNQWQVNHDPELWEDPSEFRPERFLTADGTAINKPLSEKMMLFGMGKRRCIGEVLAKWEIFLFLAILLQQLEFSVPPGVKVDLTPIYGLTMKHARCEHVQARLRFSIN

Cytochrome P450 2B6 = biological target: T3, Cytochrome P450 2B6 (Homo sapiens, UniProt P20813); assay: Inhibition of CYP2B6 (unknown origin); assay type: ADME
T3 sequence (P20813 whole entry): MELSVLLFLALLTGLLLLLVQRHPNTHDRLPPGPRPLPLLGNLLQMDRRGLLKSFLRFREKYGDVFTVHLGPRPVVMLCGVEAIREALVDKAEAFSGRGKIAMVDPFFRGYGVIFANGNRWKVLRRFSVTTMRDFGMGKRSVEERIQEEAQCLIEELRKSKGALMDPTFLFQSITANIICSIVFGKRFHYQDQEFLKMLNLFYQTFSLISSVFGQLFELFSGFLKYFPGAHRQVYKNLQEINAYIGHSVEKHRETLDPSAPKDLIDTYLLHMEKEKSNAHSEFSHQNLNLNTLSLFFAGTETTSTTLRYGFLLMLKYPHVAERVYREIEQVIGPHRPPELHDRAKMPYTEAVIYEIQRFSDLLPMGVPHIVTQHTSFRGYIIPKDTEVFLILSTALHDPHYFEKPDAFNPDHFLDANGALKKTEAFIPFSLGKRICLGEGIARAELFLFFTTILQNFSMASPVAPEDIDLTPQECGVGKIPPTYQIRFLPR

Cytochrome P450 2C8 = biological target: T4, Cytochrome P450 2C8 (Homo sapiens, UniProt P10632); assay: Inhibition of CYP2C8 (unknown origin); assay type: ADME
T4 sequence (P10632 whole entry): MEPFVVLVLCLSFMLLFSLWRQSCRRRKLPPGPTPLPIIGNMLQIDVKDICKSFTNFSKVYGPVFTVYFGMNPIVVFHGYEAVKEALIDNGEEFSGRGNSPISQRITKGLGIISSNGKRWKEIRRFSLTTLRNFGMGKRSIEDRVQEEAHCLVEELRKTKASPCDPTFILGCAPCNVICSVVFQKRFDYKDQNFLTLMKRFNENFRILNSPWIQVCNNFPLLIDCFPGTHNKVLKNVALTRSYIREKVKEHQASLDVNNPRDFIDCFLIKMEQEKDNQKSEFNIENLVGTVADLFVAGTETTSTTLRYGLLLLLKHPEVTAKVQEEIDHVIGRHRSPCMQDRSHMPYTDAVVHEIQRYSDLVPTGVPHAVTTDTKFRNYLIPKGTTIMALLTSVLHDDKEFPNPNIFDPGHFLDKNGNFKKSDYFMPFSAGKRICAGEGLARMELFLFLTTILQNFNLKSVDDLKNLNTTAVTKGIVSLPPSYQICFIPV

Cytochrome P450 2C9 = Cytochrome P450 2C9 (Homo sapiens, UniProt P11712); assay: Inhibition of CYP2C9 (unknown origin); assay type: ADME
Cytochrome P450 2D6 = Cytochrome P450 2D6 (Homo sapiens, UniProt P10635); assay: Inhibition of CYP2D6 (unknown origin); assay type: ADME
Cytochrome P450 3A4 = Cytochrome P450 3A4 (Homo sapiens, UniProt P08684); assay: Inhibition of CYP3A4 (unknown origin); assay type: ADME
[15] = Half life in Wistar rat plasma at 3 mg/kg, iv by HPLC-MS/MS analysis
[16] = Half life in Wistar rat plasma at 3 mg/kg, po by HPLC-MS/MS analysis
[17] = Half life in Wistar rat brain at 3 mg/kg, po by HPLC-MS/MS analysis
in vivo [18] = details: Wistar, rat, iv, 3 mg/kg
in vivo [19] = details: Wistar, rat, po, 3 mg/kg
in vivo [20] = details: Wistar, rat, po, 3 mg/kg; remark: listed apart in the source
in vivo [21] = details: Wistar, rat, plasma, iv, 3 mg/kg
in vivo [22] = details: Wistar, rat, plasma, po, 3 mg/kg
in vivo [23] = details: Wistar, rat, brain, po, 3 mg/kg
in vivo [24] = details: Wistar, rat, plasma, iv, 3 mg/kg; remark: listed apart in the source
in vivo [25] = details: Wistar, rat, brain, po, 3 mg/kg; remark: listed apart in the source
in vivo [26] = details: Wistar, rat, brain, po, 3 mg/kg; remark: listed apart in the source

T1 sequence (P37288 whole entry): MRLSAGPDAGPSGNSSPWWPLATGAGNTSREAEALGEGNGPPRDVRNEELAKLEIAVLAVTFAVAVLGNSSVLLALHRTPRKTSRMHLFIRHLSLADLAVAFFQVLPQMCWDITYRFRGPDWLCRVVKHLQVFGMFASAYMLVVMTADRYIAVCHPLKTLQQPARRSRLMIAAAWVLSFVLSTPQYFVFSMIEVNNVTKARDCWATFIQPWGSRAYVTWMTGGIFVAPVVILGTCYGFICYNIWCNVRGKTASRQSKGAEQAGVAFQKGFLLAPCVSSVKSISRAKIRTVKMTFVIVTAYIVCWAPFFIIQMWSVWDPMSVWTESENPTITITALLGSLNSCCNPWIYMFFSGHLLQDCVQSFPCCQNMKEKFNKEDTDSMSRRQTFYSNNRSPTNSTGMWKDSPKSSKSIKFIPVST
Sequence of Voltage-gated inwardly rectifying potassium channel KCNH2 (Q12809 whole entry): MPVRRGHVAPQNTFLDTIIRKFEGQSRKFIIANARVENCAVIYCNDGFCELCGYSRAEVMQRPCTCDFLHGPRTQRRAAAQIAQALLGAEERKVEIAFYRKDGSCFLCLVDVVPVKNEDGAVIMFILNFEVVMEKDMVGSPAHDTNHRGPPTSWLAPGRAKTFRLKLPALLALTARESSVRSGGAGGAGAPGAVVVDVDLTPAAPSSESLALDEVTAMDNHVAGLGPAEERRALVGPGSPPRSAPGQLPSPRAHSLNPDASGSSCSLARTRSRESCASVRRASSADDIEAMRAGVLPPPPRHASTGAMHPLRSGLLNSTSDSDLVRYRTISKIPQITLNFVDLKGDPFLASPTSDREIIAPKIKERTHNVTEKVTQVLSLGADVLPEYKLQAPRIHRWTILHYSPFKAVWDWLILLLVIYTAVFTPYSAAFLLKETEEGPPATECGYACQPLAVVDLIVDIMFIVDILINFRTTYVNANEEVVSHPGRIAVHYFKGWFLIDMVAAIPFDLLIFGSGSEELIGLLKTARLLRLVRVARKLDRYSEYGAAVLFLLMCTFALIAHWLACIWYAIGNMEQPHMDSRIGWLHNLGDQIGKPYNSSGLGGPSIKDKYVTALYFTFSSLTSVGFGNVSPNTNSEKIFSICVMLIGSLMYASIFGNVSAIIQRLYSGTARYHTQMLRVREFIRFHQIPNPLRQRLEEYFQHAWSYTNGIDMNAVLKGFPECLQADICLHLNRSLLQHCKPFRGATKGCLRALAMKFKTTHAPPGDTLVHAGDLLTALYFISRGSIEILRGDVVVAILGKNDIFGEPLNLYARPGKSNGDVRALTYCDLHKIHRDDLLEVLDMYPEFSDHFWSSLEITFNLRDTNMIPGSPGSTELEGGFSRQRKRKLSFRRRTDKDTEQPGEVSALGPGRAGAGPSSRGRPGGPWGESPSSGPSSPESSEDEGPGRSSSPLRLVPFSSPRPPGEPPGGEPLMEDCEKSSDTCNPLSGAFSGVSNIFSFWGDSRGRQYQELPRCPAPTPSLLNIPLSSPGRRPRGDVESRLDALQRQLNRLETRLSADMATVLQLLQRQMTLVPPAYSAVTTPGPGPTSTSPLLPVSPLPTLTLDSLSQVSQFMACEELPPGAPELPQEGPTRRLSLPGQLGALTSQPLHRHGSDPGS
Sequence of Cytochrome P450 2D6 (P10635 whole entry): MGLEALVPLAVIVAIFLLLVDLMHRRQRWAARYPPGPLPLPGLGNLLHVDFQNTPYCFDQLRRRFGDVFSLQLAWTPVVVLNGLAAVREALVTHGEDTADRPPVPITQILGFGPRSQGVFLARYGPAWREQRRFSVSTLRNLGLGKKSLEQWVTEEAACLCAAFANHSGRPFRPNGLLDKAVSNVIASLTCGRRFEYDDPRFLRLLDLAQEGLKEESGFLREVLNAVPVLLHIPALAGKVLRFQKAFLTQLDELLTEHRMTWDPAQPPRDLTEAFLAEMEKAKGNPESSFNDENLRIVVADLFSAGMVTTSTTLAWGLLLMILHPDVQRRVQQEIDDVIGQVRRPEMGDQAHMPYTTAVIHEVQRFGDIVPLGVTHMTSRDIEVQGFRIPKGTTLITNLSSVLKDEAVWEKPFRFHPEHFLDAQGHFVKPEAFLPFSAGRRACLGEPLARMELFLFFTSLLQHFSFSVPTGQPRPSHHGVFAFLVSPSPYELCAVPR
Sequence of Cytochrome P450 2C9 (P11712 whole entry): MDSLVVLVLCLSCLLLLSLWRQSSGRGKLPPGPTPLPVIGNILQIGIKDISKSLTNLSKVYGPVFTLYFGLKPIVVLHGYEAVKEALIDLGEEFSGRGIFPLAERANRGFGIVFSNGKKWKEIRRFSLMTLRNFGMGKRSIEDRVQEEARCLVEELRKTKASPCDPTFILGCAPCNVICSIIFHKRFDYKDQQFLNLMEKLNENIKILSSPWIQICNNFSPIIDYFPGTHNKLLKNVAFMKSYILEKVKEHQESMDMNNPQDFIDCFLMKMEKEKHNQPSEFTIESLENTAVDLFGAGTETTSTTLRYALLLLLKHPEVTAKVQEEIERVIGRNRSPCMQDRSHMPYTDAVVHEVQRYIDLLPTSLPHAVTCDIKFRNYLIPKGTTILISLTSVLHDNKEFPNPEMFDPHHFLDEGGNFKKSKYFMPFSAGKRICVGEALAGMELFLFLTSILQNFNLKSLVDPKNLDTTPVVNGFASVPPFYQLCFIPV
Sequence of Cytochrome P450 3A4 (P08684 whole entry): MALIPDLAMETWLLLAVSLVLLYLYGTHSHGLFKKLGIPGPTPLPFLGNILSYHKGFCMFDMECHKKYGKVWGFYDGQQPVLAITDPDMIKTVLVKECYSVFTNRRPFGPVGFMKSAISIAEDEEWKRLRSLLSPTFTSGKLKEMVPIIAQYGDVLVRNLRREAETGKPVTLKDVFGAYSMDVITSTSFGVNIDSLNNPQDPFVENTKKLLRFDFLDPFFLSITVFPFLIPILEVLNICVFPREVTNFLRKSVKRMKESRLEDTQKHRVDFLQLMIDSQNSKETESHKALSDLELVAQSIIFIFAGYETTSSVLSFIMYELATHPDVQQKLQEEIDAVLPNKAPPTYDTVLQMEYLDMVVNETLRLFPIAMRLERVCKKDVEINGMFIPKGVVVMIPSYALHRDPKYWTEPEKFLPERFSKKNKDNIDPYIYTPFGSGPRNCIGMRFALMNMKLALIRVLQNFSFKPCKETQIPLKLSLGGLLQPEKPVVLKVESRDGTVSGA

efflux ratio at 10 µM [1] | IC50 (Vasopressin V1a receptor [2]) [nM] | CLH [3] | microsomal CLint at 1 µM (in vitro [4]) [µL/min/mg] | microsomal CLint at 1 µM (in vitro [5]) [µL/min/mg] | Papp A→B at 10 µM [7] [×10⁻⁶ cm/s] | microsomal CLint at 1 µM (in vitro [9]) [µL/min/mg] | Ki (Vasopressin V1a receptor [11]) [nM] | Compound | IC50 [8] [nM] | inhibition in vivo at 10 mg/kg (animal or person [12]) [%] | inhibition in vivo at 3 mg/kg (animal or person [13]) [%] | also measured
0.8 | 178 | 41 µL/min/mg | 12 | 15 |  |  |  | Clc1cnc2n1CCCc1nnc([C@H]3CC[C@H](Oc4ccccn4)CC3)n1-2 |  |  |  | inhibition in vivo at 10 mg/kg (animal or person [6]): 32%
 | 1.1 | 10.2 mL/h/kg | 229 | 211 |  |  |  | Clc1ccc2c(c1)CC1(Cc3nnc([C@H]4CC[C@H](Oc5ccccn5)CC4)n3-2)OCCCCO1 |  |  |  | 
15 |  |  | 6 |  | 4.5 | 7 |  | Clc1ccc2c(c1)CC1(Cc3nnc([C@H]4CC[C@H](N5CCOCC5)CC4)n3-2)OCCO1 | 3500 |  |  | 
118 |  |  | 15 |  | 0.5 | 19 |  | N#CCC(=O)N[C@@H]1Cc2cc(Cl)ccc2-n2c(nnc2[C@H]2CC[C@H](Oc3ccccn3)CC2)C1 |  |  |  | microsomal CLint at 1 µM (in vitro [10]): 13 µL/min/mg
 | 1.3 | 1.56 mL/h/kg | 42 |  |  | 80 | 0.3 | Clc1ccc2c(c1)CC1(CCOC1)Cc1nnc([C@H]3CC[C@H](Oc4ccccn4)CC3)n1-2 (some centres not stated) |  |  |  | 
 |  | 7.44 mL/h/kg | 43 | 36 |  |  |  | O=C1Cc2cc(Cl)ccc2-n2c(nnc2[C@H]2CC[C@H](Oc3ccccn3)CC2)C1 | > 30000 | 70 | 58 | 
2.7 | 0.6 |  | 33 |  | 40 | 66 | 2 | CO[C@H]1Cc2cc(Cl)ccc2-n2c(nnc2[C@H]2CC[C@H](Oc3ccccn3)CC2)C1 | 10200 | 71 | 69 | 
37 |  |  | 3 |  | 1.8 | 16 |  | CC(C)(O)C(=O)N[C@@H]1Cc2cc(Cl)ccc2-n2c(nnc2[C@H]2CC[C@H](Oc3ccccn3)CC2)C1 |  |  |  | microsomal CLint at 1 µM (in vitro [10]): 1 µL/min/mg
 | 23 | 15.4 mL/h/kg | 267 |  |  | 263 | 0.3 | Clc1ccc2c(c1)CC1(CCCOC1)Cc1nnc([C@H]3CC[C@H](Oc4ccccn4)CC3)n1-2 (some centres not stated) |  |  |  | 
1 | 0.8 | 2.76 mL/h/kg |  | 126 | 30 |  | 0.6 | COCC1Cc2cc(Cl)ccc2-n2c(nnc2[C@H]2CC[C@H](Oc3ccccn3)CC2)C1 (some centres not stated) |  |  |  | 
2.9 |  |  | 4 |  | 11 | 18 |  | O=C(N[C@@H]1Cc2cc(Cl)ccc2-n2c(nnc2[C@H]2CC[C@H](Oc3ccccn3)CC2)C1)C(F)(F)F |  |  |  | microsomal CLint at 1 µM (in vitro [10]): 2 µL/min/mg
0.9 | 0.6 |  | 41 |  | 38 | 25 | 0.2 | CO[C@@H]1Cc2cc(Cl)ccc2-n2c(nnc2[C@H]2CC[C@H](Oc3ccccn3)CC2)C1 | 13800 | 67 | 73 | inhibition in vivo at 10 mg/kg (animal or person [14]): > 60%
1 |  | 0.012 mL/h/kg | 16 | 34 | 39 |  |  | FC(F)(F)[C@H]1CC[C@H](c2nnc3n2-c2ccc(Cl)cc2CC2(C3)OCCO2)CC1 | > 30000 | 41 | 0 | 
 |  |  |  |  |  |  |  | Clc1ccc2c(c1)CC1(Cc3nnc([C@H]4CC[C@H](Oc5ccccn5)CC4)n3-2)OCCO1 |  |  |  | IC50 (Cytochrome P450 1A2): > 10000 nM; IC50 (Cytochrome P450 2B6): > 10000 nM; IC50 (Cytochrome P450 2C8): > 10000 nM; IC50 (Cytochrome P450 2C9): > 10000 nM; IC50 (Cytochrome P450 2D6): > 10000 nM; IC50 (Cytochrome P450 3A4): > 10000 nM
5.9 |  | 0.024 mL/h/kg | 17 | 6 | 20 |  |  | OC1Cc2cc(Cl)ccc2-n2c(nnc2[C@H]2CC[C@H](Oc3ccccn3)CC2)C1 (mixture of isomers) | > 30000 | 91 | 87 | half-life [15]: 1 h; half-life [16]: 1.5 h; half-life [17]: 1.43 h; AUC(0-t) (in vivo [18]): 0.876 µM·h; AUC(0-t) (in vivo [19]): 0.897 µM·h; AUC(0-t) (in vivo [20]): 0.481 µM·h; Cmax (in vivo [21]): 469 nM; Cmax (in vivo [22]): 403 nM; Cmax (in vivo [23]): 190 nM; Tmax (in vivo [24]): 0.3 h; Tmax (in vivo [25]): 0.5 h; Kp (in vivo [26]): 0.54

Compound | efflux ratio at 10 µM [1] | IC50 (Vasopressin V1a receptor [2]) [nM] | CLH [3] | microsomal CLint at 1 µM (in vitro [4]) [µL/min/mg] | microsomal CLint at 1 µM (in vitro [5]) [µL/min/mg] | Papp A→B at 10 µM [7] [×10⁻⁶ cm/s] | microsomal CLint at 1 µM (in vitro [9]) [µL/min/mg] | Ki (Vasopressin V1a receptor [11]) [nM] | IC50 [8] [nM] | inhibition in vivo at 10 mg/kg (animal or person [12]) [%] | inhibition in vivo at 3 mg/kg (animal or person [13]) [%] | also measured
CN1Cc2cc(Cl)ccc2-n2c(nnc2[C@H]2CC[C@H](Oc3ccccn3)CC2)C1 [BALOVAPTAN] |  |  | 51 µL/min/mg | 17 | 22 | 51 |  |  | 21000 | 69 | 7 | 

Reference: ChEMBL document CHEMBL5532679, “Discovery and Characterization of RGH-122, a Potent, Selective, and Orally Bioavailable V1a Receptor Antagonist” (J Med Chem, 2024)
